Reference: patent US5897874A, “Expulsion of material from a delivery device” (R. P. Scherer Corporation, priority 1993, dated 1999)
Where “and” joins values, the source holds several entries; their conditions need not be identical. Identical values can stand only once.

Assay: Drug release/delivery (pulse) time of capsule in stirred purified water at 37° C., spectrophotometric
Assay type: physicochemical
From the text: A coated gelatin capsule of the type shown in FIG. 1 was filled with hydrogel powder prepared as in Example 1 of particle size 425 to 710 microns, and metoclopramide drug included as a separate layer. The hydrogel powder was compacted leaving a 4.5 mm space between the top of the hydrogel layer 10 and the mouth of the body 6. The metoclopramide was placed on top and the body was sealed with a hydrogel plug. […] The nominal delivery time was three hours.
In order to assess the delivery time to release of the drug, each capsule was placed in a liter of purified water at 37° C. stirred with a paddle at 50 rpm. The presence of drug in the water was monitored spectrophotometrically.
The procedure was repeated with a capsule having a hydrogel plug designed to provide a nominal delivery time of five hours. […] The "space" represents the space between the top of the hydrogel layer and the mouth of the body after inclusion of the drug. The space allows insertion of the plug to its correct depth without interference from the hydrogel powder fill. In this case the hydrogel plug was recessed 0.5 mm below the upper end of the neck of the capsule body.
Drug release was monitored spectrophotometrically at 226 nm.

Row | Compound | Delivery Time (individual capsules 1 to 6, Example 2, hydrogel powder excipient, nominal delivery time three hours, 37° C., paddle 50 rpm) | mean delivery time (six capsules, Example 2, standard deviation 0.10, nominal three hours, hydrogel powder excipient) [h] | mean pulse time (Example 4, standard deviation of 0.1, nominal three hour pulse time, shorter plug, hydrogel excipient) [h]
1 | CCN(CC)CCNC(=O)c1cc(Cl)c(N)cc1OC [metoclopramide] | 3.25 h and 3.00 h | 3.21 | 
2 | salbutamol sulphate |  |  | 3.29
